Toxic doses and inconclusive results are not listed. Rule as the data show it: active = T/C of 150% or more; inactive = T/C below 125%.
System: L1210 leukemia ip in BDF1 mice, survival T/C
Assay: NCI In Vivo Anticancer Drug Screen. Data for tumor model L1210 Leukemia (intraperitoneal) in B6D2F1 (BDF1) mice
Conditions: endpoint: mean survival time, higher = longer survival
Method in brief: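 Each compound was tested against a transplantable tumor grown in mice. The endpoint was survival, with treated animals benchmarked against vehicle controls as a simple ratio.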

[1] = dose: 100.0 mg/kg/injection, schedule: Q01DX009 (ip), vehicle: Klucel (hydroxypropylcellulose) (HPC)
[2] = dose: 100.0 mg/kg/injection, schedule: Q04DX003 (ip), vehicle: Klucel (hydroxypropylcellulose) (HPC)
[3] = dose: 200.0 mg/kg/injection, schedule: Q01DX009 (ip), vehicle: Klucel (hydroxypropylcellulose) (HPC)
[4] = dose: 200.0 mg/kg/injection, schedule: Q04DX003 (ip), vehicle: Klucel (hydroxypropylcellulose) (HPC)
[5] = dose: 400.0 mg/kg/injection, schedule: Q01DX009 (ip), vehicle: Klucel (hydroxypropylcellulose) (HPC)
[6] = dose: 400.0 mg/kg/injection, schedule: Q04DX003 (ip), vehicle: Klucel (hydroxypropylcellulose) (HPC)
[7] = dose: 50.0 mg/kg/injection, schedule: Q01DX009 (ip), vehicle: Klucel (hydroxypropylcellulose) (HPC)
[8] = dose: 100.0 mg/kg/injection, schedule: Q04DX003 (ip), vehicle: saline with Tween-80
[9] = dose: 200.0 mg/kg/injection, schedule: Q01DX009 (ip), vehicle: saline with Tween-80
[10] = dose: 200.0 mg/kg/injection, schedule: Q04DX003 (ip), vehicle: saline with Tween-80
[11] = dose: 400.0 mg/kg/injection, schedule: Q01DX009 (ip), vehicle: saline with Tween-80
[12] = dose: 400.0 mg/kg/injection, schedule: Q04DX003 (ip), vehicle: saline with Tween-80
[13] = dose: 100.0 mg/kg/injection, schedule: Q04DX002 (ip), vehicle: saline with Tween-80
[14] = dose: 200.0 mg/kg/injection, schedule: Q04DX002 (ip), vehicle: saline with Tween-80
[15] = dose: 400.0 mg/kg/injection, schedule: Q04DX002 (ip), vehicle: saline with Tween-80
[16] = dose: 100.0 mg/kg/injection, schedule: Q01DX001 (ip), vehicle: carboxymethylcellulose (CMC)
[17] = dose: 200.0 mg/kg/injection, schedule: Q01DX001 (ip), vehicle: carboxymethylcellulose (CMC)
[18] = dose: 400.0 mg/kg/injection, schedule: Q01DX001 (ip), vehicle: carboxymethylcellulose (CMC)

Measured: T/C

Clc1ccc2noc(-c3ccccc3)c2c1
inactive: dose: 100.0 mg/kg/injection, schedule: Q01DX001 (ip), vehicle: saline 104 % of control | [1] 95 % of control | [2] 100 % of control | dose: 200.0 mg/kg/injection, schedule: Q01DX001 (ip), vehicle: saline 100 % of control | [3] 102 % of control | [4] 94 % of control | dose: 400.0 mg/kg/injection, schedule: Q01DX001 (ip), vehicle: saline 98 % of control | [5] 95 % of control | [6] 90 % of control

O=C(Nc1cccc(Cl)c1)NS(=O)(=O)c1ccccc1
inactive: [1] 97 % of control | [3] 105 % of control | [5] 106 % of control

CNc1nc(NC)nc(NC)n1
inactive: dose: 12.5 mg/kg/injection, schedule: Q01DX009 (ip), vehicle: Klucel (hydroxypropylcellulose) (HPC) 102 % of control | dose: 25.0 mg/kg/injection, schedule: Q01DX009 (ip), vehicle: Klucel (hydroxypropylcellulose) (HPC) 102 % of control | [7] 98 % of control | [1] 98 % of control | [3] 100 % of control

COc1ccc(/C(C)=C\C(=O)O)cc1
inactive: dose: 100.0 mg/kg/injection, schedule: Q01DX009 (ip), vehicle: saline with Tween-80 96 % of control | [8] 107 % of control | [9] 102 % of control | [10] 113 % of control | [11] 101 % of control | [12] 115 % of control

CC(CC#N)NCC[P+](c1ccccc1)(c1ccccc1)c1ccccc1 (stereo not drawn)
inactive: dose: 100.0 mg/kg/injection, schedule: Q04DX003 (ip), vehicle: saline 95 % of control | dose: 200.0 mg/kg/injection, schedule: Q04DX003 (ip), vehicle: saline 96 % of control

N#CC[CH2][Sn]([CH2]CC#N)([CH2]CC#N)[CH2]CC#N
inactive: [13] 100 % of control | [14] 96 % of control | [15] 96 % of control

CON(C)CCOC(=O)c1ccc(N)cc1
inactive: dose: 50.0 mg/kg/injection, schedule: Q04DX002 (ip), vehicle: saline with Tween-80 104 % of control | [13] 107 % of control | [8] 89 % of control | [14] 104 % of control | [10] 95 % of control | [15] 104 % of control | [12] 99 % of control

O=c1c2ccccc2sc2c(CO)ccc(NCCN3CCCCC3)c12
inactive: [7] 99 % of control | [1] 96 % of control | [3] 120 % of control

Cc1cccc(C(=O)OCc2ccccc2CN2CCCC2)c1
inactive: dose: 100.0 mg/kg/injection, schedule: Q04DX002 (ip), vehicle: saline 93 % of control | dose: 200.0 mg/kg/injection, schedule: Q04DX002 (ip), vehicle: saline 104 % of control

Oc1ccccc1C=Nc1cnc2ccccc2c1
inactive: [16] 95 % of control | [17] 98 % of control | [18] 95 % of control

O=C(N/N=C/c1ccc(Cl)cc1)c1ccccc1NC(=O)C1CC1
inactive: [1] 97 % of control | [3] 87 % of control | [5] 103 % of control

CC(C)(C)C(CCC(=O)O)CC(=O)O (stereo not drawn)
inactive: [9] 90 % of control | [11] 89 % of control

Nc1c2c(=O)[nH]c(=O)c2c(N)c2c(=O)c3ccccc3c(=O)c12
inactive: dose: 100.0 mg/kg/injection, schedule: Q01DX001 (ip), vehicle: acetone 93 % of control | dose: 200.0 mg/kg/injection, schedule: Q01DX001 (ip), vehicle: acetone 103 % of control | dose: 400.0 mg/kg/injection, schedule: Q01DX001 (ip), vehicle: acetone 103 % of control

COc1cc(/C=C(\C(=O)O)c2cccc3ccccc23)cc(OC)c1OC
inactive: [2] 97 % of control | [4] 107 % of control | [6] 102 % of control

Cc1ccc(C)c([N+](=O)[O-])c1C(=O)O
inactive: [16] 104 % of control | [17] 96 % of control | [18] 109 % of control

NNc1nnc(Cl)cc1N
inactive: dose: 25.0 mg/kg/injection, schedule: Q04DX003 (ip), vehicle: saline with Tween-80 102 % of control | dose: 50.0 mg/kg/injection, schedule: Q04DX003 (ip), vehicle: saline with Tween-80 104 % of control | [8] 113 % of control

CCOC(=O)C1C(=O)C(C(C(=O)OC2CC(C)CCC2C(C)C)N(CCCl)CCCl)C(=O)C(C(=O)OCC)C1c1ccc(O)cc1 (stereo not drawn)
inactive: [7] 104 % of control | [1] 104 % of control | [3] 101 % of control

O=C(Cn1ccccc1=O)c1ccccc1
inactive: [8] 101 % of control | [12] 100 % of control

O=[N+]([O-])n1cnnc1-c1ccccc1
inactive: dose: 12.5 mg/kg/injection, schedule: Q04DX003 (ip), vehicle: gum acacia 96 % of control | dose: 25.0 mg/kg/injection, schedule: Q04DX003 (ip), vehicle: gum acacia 102 % of control | dose: 50.0 mg/kg/injection, schedule: Q04DX003 (ip), vehicle: gum acacia 98 % of control

CC(=O)N1CCCCC1
inactive: dose: 50.0 mg/kg/injection, schedule: Q01DX001 (ip), vehicle: carboxymethylcellulose (CMC) 97 % of control | [16] 94 % of control | dose: 100.0 mg/kg/injection, schedule: Q01DX009 (ip), vehicle: saline 100 % of control | [17] 100 % of control | dose: 200.0 mg/kg/injection, schedule: Q01DX009 (ip), vehicle: saline 98 % of control

CC1=CC(=O)[C@@H](O)[C@]2(C)[C@H]3[C@@]4(O)OC[C@]35[C@H]([C@@H](C)[C@H]4O)[C@@H](OC(=O)c3ccccc3)C(=O)O[C@@H]5C[C@@H]12
inactive: dose: 0.25 mg/kg/injection, schedule: Q01DX009 (ip), vehicle: saline with Tween-80 102 % of control | dose: 0.5 mg/kg/injection, schedule: Q01DX009 (ip), vehicle: saline with Tween-80 103 % of control | dose: 1.0 mg/kg/injection, schedule: Q01DX009 (ip), vehicle: saline with Tween-80 103 % of control | dose: 2.0 mg/kg/injection, schedule: Q01DX009 (ip), vehicle: saline with Tween-80 108 % of control | dose: 4.0 mg/kg/injection, schedule: Q01DX009 (ip), vehicle: saline with Tween-80 111 % of control
